Earlier results as cited in US12686008B2, “Microfluidic device having specifically designed detection chambers” (Bifrost Biosystems Inc., priority 2020, dated 2026).
Where no end group is shown, it is not given here.

Details: literature values, refs [18, 19]; test organism not given

| Substance | MIC [µM] |
| --- | --- |
| VDKPPYLPRPRPPRRIYNR-NH2 [Oncocin] | 0.42 |
| LL-37 | 1.5 |
